# Test results as given in patent US20230203043A1, “NOVEL IMIDAZOPYRAZINE DERIVATIVES” (Hoffmann-La Roche Inc., priority 2020, published 2023).
# Counter-ions that a name gives are not always drawn.
# Tested on: Acinetobacter baumannii ATCC17961
# Assay: Antimicrobial susceptibility testing: 90% growth inhibitory concentration (IC90) determination in Iso-Sensitest broth, OD600 growth
# Type: cell-based
# Conditions: Acinetobacter baumannii, ATCC17961, 16 h, read-out: A. baumannii ATCC 17961 IC90 (uM), strain ATCC 17961, OD600 growth over 16 h
# Summary of the method: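 Growth inhibition is calculated during the logarithmic phase from OD600 readings taken every 20 minutes across 16 h at 35±2° C. Bacteria at ~5×10^(5) CFU/ml face twofold dilution series (e.g. 50 to 0.097 μM final).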
row,Structure (SMILES),IC90 [µM]
1,"C=C(Cl)Cn1cc(-c2cnc3c(Nc4ccc(C(=O)NCCOCCN)c(CC)c4)nccn23)c(C(F)(F)F)n1 [Example 274, N-[2-(2-aminoethoxy)ethyl]-4-[[3-[1-(2-chloroprop-2-enyl)-3-(trifluoromethyl)pyrazol-4-yl]imidazo[1,2-a]pyrazin-8-yl]amino]-2-ethylbenzamide formate]",0.101
2,"C=C(Cl)C(C)n1cc(-c2cnc3c(Nc4ccc(C(=O)NCCOCCN)c(CC)c4)nccn23)c(C(F)(F)F)n1 (stereo not shown) [Example 275, N-[2-(2-aminoethoxy)ethyl]-4-[[3-[1-(3-chlorobut-3-en-2-yl)-3-(trifluoromethyl)pyrazol-4-yl]imidazo[1,2-a]pyrazin-8-yl]amino]-2-ethylbenzamide formate]",0.169
3,"CCc1cc(Nc2nccn3c(-c4cn(CC(F)(F)F)nc4C(F)(F)F)cnc23)ccc1C(=O)NCCOCCN [Example 276, N-[2-(2-aminoethoxy)ethyl]-2-ethyl-4-[[3-[1-(2,2,2-trifluoroethyl)-3-(trifluoromethyl)pyrazol-4-yl]imidazo[1,2-a]pyrazin-8-yl]amino]benzamide formate]",0.178
4,"CCc1cc(Nc2nccn3c(-c4cn(CC5CC5(F)F)nc4C(F)(F)F)cnc23)ccc1C(=O)NCCOCCN (stereo not shown) [Example 277, N-[2-(2-aminoethoxy)ethyl]-4-[[3-[1-[(2,2-difluorocyclopropyl)methyl]-3-(trifluoromethyl)pyrazol-4-yl]imidazo[1,2-a]pyrazin-8-yl]amino]-2-ethylbenzamide formate]",0.186
5,"CCc1cc(Nc2nccn3c(-c4cn(C(CO)CCl)nc4C(F)(F)F)cnc23)ccc1C(=O)NCCOCCN (stereo not shown) [Example 278, N-[2-(2-aminoethoxy)ethyl]-4-[[3-[1-(1-chloro-3-hydroxypropan-2-yl)-3-(trifluoromethyl)pyrazol-4-yl]imidazo[1,2-a]pyrazin-8-yl]amino]-2-ethylbenzamide formate]",0.332
6,"CCc1cc(Nc2nccn3c(-c4cn(CC(C)(CO)CCl)nc4C(F)(F)F)cnc23)ccc1C(=O)NCCOCCN (stereo not shown) [Example 279, N-[2-(2-aminoethoxy)ethyl]-4-[[3-[1-[2-(chloromethyl)-3-hydroxy-2-methylpropyl]-3-(trifluoromethyl)pyrazol-4-yl]imidazo[1,2-a]pyrazin-8-yl]amino]-2-ethylbenzamide formate]",0.664
7,"NC1CCN(C(=O)N2CCN(C(=O)c3ccc(Nc4nccn5c(-c6c[nH]nc6C(F)(F)F)cnc45)cc3Cl)CC2)CC1 [Example 285, [4-(4-aminopiperidine-1-carbonyl)piperazin-1-yl]-[2-chloro-4-[[3-[3-(trifluoromethyl)-1H-pyrazol-4-yl]imidazo[1,2-a]pyrazin-8-yl]amino]phenyl] methanone formate]",0.185
8,"N#CCn1cc(-c2cnc3c(Nc4ccc(C(=O)N5CCN(C(=O)CCN)CC5)c(Cl)c4)nccn23)c(C(F)(F)F)n1 [Example 286, 2-[4-[8-[4-[4-(3-aminopropanoyl)piperazine-1-carbonyl]-3-chloroanilino]imidazo[1,2-a]pyrazin-3-yl]-3-(trifluoromethyl)pyrazol-1-yl]acetonitrile formate]",0.226
9,"N#CCn1cc(-c2cnc3c(Nc4ccc(C(=O)N5CCN(C(=O)N[C@@H]6CCNC6)CC5)c(Cl)c4)nccn23)c(C(F)(F)F)n1 [Example 288, 4-[2-chloro-4-[[3-[1-(cyanomethyl)-3-(trifluoromethyl)pyrazol-4-yl]imidazo[1,2-a]pyrazin-8-yl]amino]benzoyl]-N-[(3R)-pyrrolidin-3-yl]piperazine-1-carboxamide formate]",0.233
10,"COCCn1cc(-c2cnc3c(Nc4ccc(C(=O)N5CCN(C(=O)N[C@H]6CCNC6)CC5)c(Cl)c4)nccn23)c(C(F)(F)F)n1 [Example 293, 4-[2-chloro-4-[[3-[1-(2-methoxyethyl)-3-(trifluoromethyl)pyrazol-4-yl]imidazo[1,2-a]pyrazin-8-yl]amino]benzoyl]-N-[(3S)-pyrrolidin-3-yl]piperazine-1-carboxamide formate]",0.429
11,"COCCn1cc(-c2cnc3c(Nc4ccc(C(=O)N5CCN(C(=O)CCN)CC5)c(Cl)c4)nccn23)c(C(F)(F)F)n1 [Example 294, 3-amino-1-[4-[2-chloro-4-[[3-[1-(2-methoxyethyl)-3-(trifluoromethyl)pyrazol-4-yl]imidazo[1,2-a]pyrazin-8-yl]amino]benzoyl]piperazin-1-yl]propan-1-one formate]",0.457
12,"N[C@@H]1CN[C@H](C(=O)N2CCN(C(=O)c3ccc(Nc4nccn5c(-c6c[nH]nc6C(F)(F)F)cnc45)cc3Cl)CC2)C1 [Example 295, [4-[(2S,4S)-4-aminopyrrolidine-2-carbonyl]piperazin-1-yl]-[2-chloro-4-[[3-[3-(trifluoromethyl)-1H-pyrazol-4-yl]imidazo[1,2-a]pyrazin-8-yl]amino]phenyl] methanone formate]",0.473
13,"COCCn1cc(-c2cnc3c(Nc4ccc(C(=O)N5CCN(C(=O)N[C@@H]6CCNC6)CC5)c(Cl)c4)nccn23)c(C(F)(F)F)n1 [Example 296, 4-[2-chloro-4-[[3-[1-(2-methoxyethyl)-3-(trifluoromethyl)pyrazol-4-yl]imidazo[1,2-a]pyrazin-8-yl]amino]benzoyl]-N-[(3R)-pyrrolidin-3-yl]piperazine-1-carboxamide formate]",0.491
14,"N#CCn1cc(-c2cnc3c(Nc4ccc(C(=O)N5CCN(C(=O)N[C@H]6CCNC6)CC5)c(Cl)c4)nccn23)c(C(F)(F)F)n1 [Example 297, 4-[2-chloro-4-[[3-[1-(cyanomethyl)-3-(trifluoromethyl)pyrazol-4-yl]imidazo[1,2-a]pyrazin-8-yl]amino]benzoyl]-N-[(3S)-pyrrolidin-3-yl]piperazine-1-carboxamide formate]",0.31

# Same assay, conditions: Acinetobacter baumannii, ATCC17961, 16 h, strain ATCC 17961, OD600 growth over 16 h, read-out: A. baumannii ATCC 17961 IC90
row,IC90 [µM],Structure (SMILES)
1,0.517,"CCNC(=O)c1ccc(Nc2nccn3c(-c4c[nH]nc4C(F)(F)F)cnc23)cc1CC [Example 280, N,2-diethyl-4-[[3-[3-(trifluoromethyl)-1H-pyrazol-4-yl]imidazo[1,2-a]pyrazin-8-yl]amino]benzamide]"
2,0.345,"CNC(=O)c1ccc(Nc2nccn3c(-c4cn(Cc5ccncn5)nc4C(F)(F)F)cnc23)cc1Cl [Example 281, 2-chloro-N-methyl-4-[[3-[1-(pyrimidin-4-ylmethyl)-3-(trifluoromethyl)pyrazol-4-yl]imidazo[1,2-a]pyrazin-8-yl]amino]benzamide]"
3,0.701,"CCc1cc(Nc2nccn3c(-c4cn(Cc5ccncn5)nc4C(F)(F)F)cnc23)ccc1C(=O)NC [Example 282, 2-ethyl-N-methyl-4-[[3-[1-(pyrimidin-4-ylmethyl)-3-(trifluoromethyl)pyrazol-4-yl]imidazo[1,2-a]pyrazin-8-yl]amino]benzamide]"
4,1.56,"CCc1cc(Nc2nccn3c(-c4cn(CCN)nc4C(F)(F)F)cnc23)ccc1C(=O)NC [Example 283, 4-[[3-[1-(2-aminoethyl)-3-(trifluoromethyl)pyrazol-4-yl]imidazo[1,2-a]pyrazin-8-yl]amino]-2-ethyl-N-methylbenzamide]"
5,0.177,"CNC(=O)c1ccc(Nc2nccn3c(-c4cn(Cc5cc[nH]n5)nc4C(F)(F)F)cnc23)cc1Cl [Example 284, 2-chloro-N-methyl-4-[[3-[1-(1H-pyrazol-3-ylmethyl)-3-(trifluoromethyl)pyrazol-4-yl]imidazo[1,2-a]pyrazin-8-yl]amino]benzamide]"
6,1.32,"CCc1cc(Nc2nccn3c(-c4cn(CCNC)nc4C(F)(F)F)cnc23)ccc1C(=O)NC [Example 298, 2-ethyl-N-methyl-4-[[3-[1-[2-(methylamino)ethyl]-3-(trifluoromethyl)pyrazol-4-yl]imidazo[1,2-a]pyrazin-8-yl]amino]benzamide]"

# Same assay, conditions: strain ATCC 17961, OD600 growth over 16 h, read-out: A. baumannii ATCC 17961 IC90
row,Structure (SMILES),IC90 [µM]
1,"NC1CCC(NC(=O)N2CCN(C(=O)c3ccc(Nc4nccn5c(-c6c[nH]nc6C(F)(F)F)cnc45)cc3Cl)CC2)CC1 (stereo not shown) [Example 287, N-(4-aminocyclohexyl)-4-[2-chloro-4-[[3-[3-(trifluoromethyl)-1H-pyrazol-4-yl]imidazo[1,2-a]pyrazin-8-yl]amino]benzoyl] piperazine-1-carboxamide formate]",0.23
2,"NC1CC(NC(=O)N2CCN(C(=O)c3ccc(Nc4nccn5c(-c6c[nH]nc6C(F)(F)F)cnc45)cc3Cl)CC2)C1 (stereo not shown) [Example 289, N-(3-aminocyclobutyl)-4-[2-chloro-4-[[3-[3-(trifluoromethyl)-1H-pyrazol-4-yl]imidazo[1,2-a]pyrazin-8-yl]amino]benzoyl] piperazine-1-carboxamide formate]",0.234
3,"COCCn1cc(-c2cnc3c(Nc4ccc(C(=O)N5CCN(C(=O)NCCN)CC5)c(Cl)c4)nccn23)c(C(F)(F)F)n1 [Example 290, N-(2-aminoethyl)-4-[2-chloro-4-[[3-[1-(2-methoxyethyl)-3-(trifluoromethyl)pyrazol-4-yl]imidazo[1,2-a]pyrazin-8-yl]amino]benzoyl] piperazine-1-carboxamide formate]",0.33
4,"NC1CCC(NC(=O)N2CCN(C(=O)c3ccc(Nc4nccn5c(-c6c[nH]nc6C(F)(F)F)cnc45)cc3Cl)CC2)CC1 (stereo not shown) [Example 291, N-(4-aminocyclohexyl)-4-[2-chloro-4-[[3-[3-(trifluoromethyl)-1H-pyrazol-4-yl]imidazo[1,2-a]pyrazin-8-yl]amino]benzoyl] piperazine-1-carboxamide formate]",0.332
5,"N[C@H]1CC[C@H](NC(=O)N2CCN(C(=O)c3ccc(Nc4nccn5c(-c6c[nH]nc6C(F)(F)F)cnc45)cc3Cl)CC2)C1 [Example 292, N-[(1S,3S)-3-aminocyclopentyl]-4-[2-chloro-4-[[3-[3-(trifluoromethyl)-1H-pyrazol-4-yl]imidazo[1,2-a]pyrazin-8-yl]amino]benzoyl] piperazine-1-carboxamide formate]",0.354
